Data set [1] in a line: in vitro. Conditions: rat, liver microsomes.
Data set [2] can be described thus: in vitro. To be noted: human, liver microsomes. (Microsomes from liver hold many membrane-bound enzymes, among them those of drug oxidation.)
Data set [3] is described as follows: in vivo. To be noted: rat, po, 5 mg/kg.
Data set [4] is described as follows: in vivo. Conditions: rat, po, 5 mg/kg. This is another data set of the same source.
A short description of data set [5]: in vivo. Conditions: rat, brain.
Data set [6] in a line: in vivo. Conditions: rat, iv, 1 mg/kg.
For data set [7] the following is noted: human, caco-2.
A short description of data set [8]: in vivo. Conditions: rat.
Data set [9] in a line: in vivo. Conditions: rat, whole blood, iv, 1 mg/kg.

The structures appear in SMILES notation.

Turning to `Cc1ncccc1-c1nnc(SCCCN2CC[C@]3(C[C@@H]3c3ccc(C(F)(F)F)cc3)C2)n1C`, the intrinsic clearance (microsomal CLint) – broadly, the capacity of the preparation to metabolise the compound, expressed as a volume cleared per time – at 0.5 h, 0.5 µM in the data set “in vitro [1]” was determined as 103 µL/min/mg; in “in vitro [2]” it was 80 µL/min/mg.
In the same order, the values of `Cn1c(SCCCN2CC[C@]3(C[C@@H]3c3ccc(C(F)(F)F)cc3)C2)nnc1C1CCNC(=O)C1` (single isomer, unassigned) are < 11 µL/min/mg and 25 µL/min/mg.
Regarding `Cn1c(SCCCN2CC[C@]3(C[C@@H]3c3ccc(C(F)(F)F)cc3)C2)nnc1-c1ccc(-c2ncco2)cc1`, the intrinsic clearance (microsomal CLint) at 0.5 h, 0.5 µM was found to be 276 µL/min/mg in “in vitro [1]” and 352 µL/min/mg in the data set “in vitro [2]”.
In the same order, the values of `Cc1ncoc1-c1nnc(SCCCN2CC[C@@]3(C[C@H]3c3ccc(F)cc3)C2)n1C` are 73 µL/min/mg and 37 µL/min/mg.
In the same order, the values of `Cc1ccc(-c2nnc(SCCCN3CC[C@]4(C[C@@H]4c4ccc(C(F)(F)F)cc4)C3)n2C)c(C)n1` are 98 µL/min/mg and 299 µL/min/mg.
Take `Cn1c(SCCCN2CC[C@]3(C[C@@H]3c3ccc(C(F)(F)F)cc3)C2)nnc1-c1ccc(=O)n(C)c1`: the bioavailability (usually the share of a dose that reaches the circulation, judged against a reference dose that is usually intravenous) in the data set “in vivo [3]” is 10%. The compound also had a Fa in the data set “in vivo [4]” of 17%. This compound also had a Kp in “in vivo [5]” of 0.4. In addition, in the data set “in vivo [6]”, the Vd (in general, the apparent volume that relates the amount in the body to the concentration in plasma or blood) stood at 4 L/kg. The permeability entry in data set [7] is on record as “Permeable”. In addition, the half-life (usually the time needed for the level to fall by half in the phase considered) in “in vivo [8]” is 1.9 h. For the same compound, the clearance (as a rule, a measure of how efficiently the substance is removed, as volume per time) in the data set “in vivo [9]” was found to be 30.2 mL/min/kg. The microsomal CLint at 0.5 h, 0.5 µM was determined as 16 µL/min/mg in “in vitro [1]” and 41 µL/min/mg in the data set “in vitro [2]”.
As for `Cn1c(SCCCN2CC[C@]3(C[C@@H]3c3ccc(C(F)(F)F)cc3)C2)nnc1-c1cccc(-c2ncco2)c1`, the intrinsic metabolic clearance (microsomal CLint) at 0.5 h, 0.5 µM came out at 100 µL/min/mg in “in vitro [1]” and 447 µL/min/mg in the data set “in vitro [2]”.
Regarding `Cn1c(SCCCN2CC[C@]3(C[C@@H]3c3ccc(C(F)(F)F)cc3)C2)nnc1-c1cccc(C(N)=O)c1`, the intrinsic metabolic clearance (microsomal CLint) at 0.5 h, 0.5 µM in the data set “in vitro [1]” was found to be 92 µL/min/mg; in the data set “in vitro [2]” it was 187 µL/min/mg.
In the same order, the values of `Cn1c(SCCCN2CC[C@]3(C[C@@H]3c3ccc(C(F)(F)F)cc3)C2)nnc1-c1ccc(C(N)=O)cc1` are 41 µL/min/mg and 155 µL/min/mg.
With `Cc1nc(C(N)=O)ccc1-c1nnc(SCCCN2CC[C@]3(C[C@@H]3c3ccc(C(F)(F)F)cc3)C2)n1C`, the bioavailability in “in vivo [3]” was 39%. The Fa in the data set “in vivo [4]” worked out at 54%. In “in vivo [5]”, this compound had a Kp of 1.5. In addition, the Vd in “in vivo [6]” is 5.5 L/kg. Moreover, in the data set “in vivo [8]”, the half-life was 4.3 h. Further, the clearance in the data set “in vivo [9]” stood at 21.1 mL/min/kg. Besides, the intrinsic clearance (microsomal CLint) at 0.5 h, 0.5 µM came to 38 µL/min/mg in the data set “in vitro [1]” and 299 µL/min/mg in the data set “in vitro [2]”.
In the case of `Cn1c(SCCCN2CC[C@]3(C[C@@H]3c3ccc(C(F)(F)F)cc3)C2)nnc1C1CCOCC1`, the bioavailability in “in vivo [3]” came out at 11%. The Fa in the data set “in vivo [4]” was found to be 57%. Besides, in the data set “in vivo [5]”, the Kp worked out at 0.3. Also, in “in vivo [6]”, the volume of distribution (Vd) worked out at 3.7 L/kg. In addition, the permeability entry in [7] is reported as “Permeable”. Besides, in “in vivo [8]”, the half-life is 0.6 h. Moreover, the clearance in the data set “in vivo [9]” was 87.3 mL/min/kg. Moreover, the microsomal CLint at 0.5 h, 0.5 µM in the data set “in vitro [1]” amounted to 59 µL/min/mg; in “in vitro [2]”, 34 µL/min/mg.
In “in vivo [3]”, `Cn1c(SCCCN2CC[C@]3(C[C@@H]3c3ccc(C(F)(F)F)cc3)C2)nnc1-c1ccc(C(N)=O)nc1` gave a bioavailability of 26%. The compound also registered a Fa in “in vivo [4]” of 40%. In the data set “in vivo [6]”, this compound had a volume of distribution (Vd) of 3.2 L/kg. In the data set “in vivo [8]”, the half-life was 2.2 h. The clearance in the data set “in vivo [9]” worked out at 19.4 mL/min/kg. Moreover, the microsomal CLint at 0.5 h, 0.5 µM was 29 µL/min/mg in “in vitro [1]” and 106 µL/min/mg in the data set “in vitro [2]”.
For `Cn1c(SCCCN2CC[C@]3(C[C@@H]3c3ccc(C(F)(F)F)cc3)C2)nnc1-c1ccc(CC(N)=O)cc1`, the microsomal CLint at 0.5 h, 0.5 µM in the data set “in vitro [1]” is 22 µL/min/mg; in the data set “in vitro [2]” it was 58 µL/min/mg.
In the same order, the values of `Cc1ncoc1-c1nnc(SCCCN2CC[C@]3(C[C@@H]3c3ccc(C(F)(F)F)cc3)C2)n1C` are 83 µL/min/mg and 86 µL/min/mg.
In the same order, the values of `Cc1ncoc1-c1nnc(SCCCN2CC[C@@]3(C[C@H]3c3ccc(F)cc3F)C2)n1C` are 161 µL/min/mg and 53 µL/min/mg.
Compound `Cn1c(SCCCN2CC[C@]3(C[C@@H]3c3ccc(C(F)(F)F)cc3)C2)nnc1C1CC2CCC(C1)O2` (single isomer, unassigned; enantiomer 1) had a volume of distribution (Vd) in the data set “in vivo [6]” of 2.6 L/kg. This compound also returned a clearance in the data set “in vivo [9]” of 80 mL/min/kg. The microsomal CLint at 0.5 h, 0.5 µM in “in vitro [1]” worked out at 21.3 µL/min/mg; in the data set “in vitro [2]”, 50 µL/min/mg.
For the compound `Cn1c(SCCCN2CC[C@]3(C[C@@H]3c3ccc(C(F)(F)F)cc3)C2)nnc1C1CCCCC1`, the microsomal CLint at 0.5 h, 0.5 µM in the data set “in vitro [1]” was 201 µL/min/mg; in the data set “in vitro [2]” it was 339 µL/min/mg.
With `Cn1c(SCCCN2CC[C@]3(C[C@@H]3c3ccc(C(F)(F)F)cc3)C2)nnc1C1=CCC(=O)N=C1` (stereo in doubt), the bioavailability in the data set “in vivo [3]” was determined as 2%. This compound yielded a Fa in the data set “in vivo [4]” of 1%. The compound also yielded a distribution volume (Vd) in “in vivo [6]” of 9.1 L/kg. The permeability result in [7] is reported as “Impermeable”. In the data set “in vivo [8]”, this compound had a half-life of 3.4 h. Moreover, the clearance in the data set “in vivo [9]” came out at 48 mL/min/kg. For the same compound, the microsomal CLint at 0.5 h, 0.5 µM in the data set “in vitro [1]” amounted to 14 µL/min/mg; in the data set “in vitro [2]”, 28 µL/min/mg.
`Cc1ncoc1-c1nnc(SCCCN2CC[C@]3(C[C@H]3c3ccc(F)cc3C(F)(F)F)C2)n1C` (single isomer, unassigned; enantiomer 1): the values for the microsomal CLint at 0.5 h, 0.5 µM in “in vitro [1]” and in the data set “in vitro [2]” were 51 µL/min/mg and 65 µL/min/mg, respectively.
`Cc1ncoc1-c1nnc(SCCCN2CC[C@@]3(C[C@H]3c3ccc(F)cc3C(F)(F)F)C2)n1C` (single isomer, unassigned; enantiomer 2): the microsomal CLint at 0.5 h, 0.5 µM in “in vitro [1]” stood at 151 µL/min/mg; in the data set “in vitro [2]”, 320 µL/min/mg.
In the same order, the values of `Cc1ncoc1-c1nnc(SCCCN2CC[C@]3(C[C@H]3c3ccc(C(F)(F)F)cc3)C2)n1C` are 161 µL/min/mg and 22 µL/min/mg.
Take `Cn1c(SCCCN2CC[C@]3(C[C@@H]3c3ccc(C(F)(F)F)cc3F)C2)nnc1-c1cccnc1`: the microsomal CLint at 0.5 h, 0.5 µM in the data set “in vitro [1]” is 278 µL/min/mg; in the data set “in vitro [2]”, 485 µL/min/mg.

The record behind these values is ChEMBL document CHEMBL3853329, “1,2,4-Triazolyl 5-Azaspiro[2.4]heptanes: Lead Identification and Early Lead Optimization of a New Series of Potent and Selective Dopamine D3 Receptor Antagonists” (J Med Chem, 2016).
